The text below walks through data of US20120093735A1, “COMPLEX COMPOUND AND MRI PROBE MADE OF SAME” (priority 2005, published 2012).

Type in all cases: physicochemical
Test [1] is described as follows: T1-weighted images of KMR-Ca001 solutions (1.5T MR scanner). The note with it: 0.05M Tris/HCl pH 7.4, 1.5T. As for the experimental part:
Water, solutions containing KMR-Ca001 alone at concentrations of 0.1, 0.3, 0.6, 1.0 and 3.0 mM, respectively, and solutions containing 0.3 mM KMR-Ca001 and CaCl2 at concentrations of 0.5, 0.6, 0.8, 1.0, 10.0, 20.0, 50.0, 80.0 mM, respectively, in 0.05M Tris/HCl buffer, pH 7.4, were prepared, and placed in glass tubes, respectively. These glass tubes were stood on agar contained in a Tupperware, and T1-weighted images were obtained by T1-weighted GRE using a 1.5T MR scanner (Signa Horzon LX, produced by GE Yokogawa Medical Systems).
As a result, as KMR-Ca001 increased, the T1-weighted images became whiter, so that it was confirmed that KMR-Ca001 functioned and effective as an MRI contrast agent. The T1-weighted images of the solutions containing 0.3 mM KMR-Ca001 to which calcium ion was added, as the calcium ion increases, coordination of water to gadolinium ion was more inhibited, so that T1-weighted image became darker. By this, it was confirmed that KMR-Ca001 is an MRI contrast agent which responds to calcium ion concentration.

Test [2] can be described thus: Relaxivity R1 of KMR-Ca001 depending on abundance of ions. As to conditions: CaCl2 vs NaCl, MgCl2, FeCl3; 0.05M Tris/HCl pH 7.4, 0.47 T, 40° C. As for the experimental part: (§1) Solutions of KMR-Ca001 (0.6 mM) and CaCl2 (0, 0.01, 0.1, 0.2, 0.3, 0.4, 0.5, 0.6, 0.7, 0.8, 1.0, 1.2, 3.0, 10, 30, 100mM) in 0.05M Tris/HCl buffer, pH 7.4, were prepared in an amount of 2 mL, respectively. Each solution was measured for the longitudinal relaxation time T1 three times using NMS 120 Minispec NMR ANALYZER (0.47 T, 40° C., IR pulse). Then each solution was sequentially diluted to attain […] concentrations of 0.45 mM and 0.35 mM, respectively, and the longitudinal relaxation time T1 was measured therefor in the same manner. By taking [KMR-Ca001] along the abscissa and taking 1/T1 along the ordinate, relaxivity R1 was determined from the slope. Measurements of the longitudinal relaxation time were carried out in the same manner using NaCl, MgCl2 or FeCl3.

A short description of test [3]: Relaxivity R1 of KMR-Ca001 in the presence of iron ion. As to conditions: 0.05M Tris/HCl pH 7.4, 0.47 T, 40° C.; iron ion per se has relaxing capability. As for the experimental part: as §1
A short description of test [4]: Relaxivity R1 of KMR-K001 in the presence of zinc ion. The note with it: 0.05M Tris/HCl pH 7.4, 0.47 T, 40° C.; gadolinium ion liberated by ligand exchange.
Test [5] in a line: Relaxivity R1 of KMR-K001 depending on abundance of ions. The note with it: KCl vs CaCl2, MgCl2, FeCl3; 0.05M Tris/HCl pH 7.4, 0.47 T, 40° C. The procedure:
Solutions of KMR-K001 (1.0 mM) and KCl (0, 0.01, 0.1, 0.3, 0.6, 0.9, 1.2, 1.5, 1.8, 2.4, 3.0, 10, 30. 100 mM) in 0.05M Tris/HCl buffer, pH 7.4, were prepared in an amount of 2 mL, respectively. Each solution was measured for the longitudinal relaxation time T1 three times using NMS 120 Minispec NMR ANALYZER (0.47 T, 40° C., IR pulse). Then each solution was sequentially diluted to attain KMR-K001 concentrations of 0.9 mM and 0.8 mM, respectively, and the longitudinal relaxation time T1 was measured therefor. By taking [KMR-K001] along the abscissa and taking 1/T1 along the ordinate, relaxivity R1 was determined from the slope. Measurements of the longitudinal relaxation time were carried out in the same manner using CaCl2, MgCl2 or FeCl3.

Consider “{bis-[2-({[3-(bis-carboxymethyl-amino)-4-methoxy-phenylcarbamoyl]-methyl}-carboxymethyl-amino)-ethyl]-amino}-acetic acid gadolinium complex [KMR-Ca001]”, for which, in test [1] (0.3 mM KMR-Ca001 with CaCl2 0.5-80.0 mM), the “T1-weighted image change with increasing calcium ion” value is “became darker”. Besides, the “T1-weighted image change with increasing probe concentration” value in test [1] (KMR-Ca001 alone 0.1-3.0 mM) is “became whiter”. In addition, in test [2], the “ion selectivity of relaxivity R1 response” value is “selectively responds to calcium ion”. Also, the “change of relaxivity in the presence of iron ion” value in test [3] was “the relaxivity is sharply increased”.

In the case of “[bis-(2-{[(2-carboxy-(benzo-15-crown-5)-ethylcarbamoyl)-methyl]-carboxymethyl-amino}-ethyl)-amino]-acetic acid gadolinium complex [KMR-K001]”, the “change of relaxivity in the presence of zinc ion” value in test [4] was “the relaxivity is sharply increased”. Also, the “ion selectivity of relaxivity R1 response” value in test [5] was “selectively responds to potassium ion”.
